In one test the target is CDK4/Cyclin D1 (Homo sapiens (Human), UniProt P11802). Description: TR-FRET kinase inhibition assay, CDK4/Cyclin D1. The format is biochemical. Particulars: 1 mM ATP, 0.15 μM Rb (Ser780)-biotin substrate, read-out: CDK4D1 IC50. The procedure:
Compounds disclosed herein were tested for inhibition of CDK4/Cyclin D1 or CDK6/Cyclin D3 kinase in an assay based on the time-resolved fluorescence-resonance energy transfer (TR-FRET) methodology. […] The kinase was incubated with compound for 60 minutes at room temperature and the reaction was initiated by the addition of ATP and Rb (Ser780)-biotin substrate. After reaction at room temperature for 120 minutes, an equal volume of stop/detection solution was added according to the manufacture's instruction (Cisbio Bioassays). The stop/detection solution contained Streptavidin-XL665 and Anti-pRb (Ser780) mAb-Eu Cryptate in Detection buffer (Cisbio Bioassays). […] The inhibition percentage of CDK4/Cyclin D1 or CDK6/Cyclin D3 kinase activity in presence of increasing concentrations of compounds was calculated based on the ratio of fluorescence at 665 nm to that at 620 nm. The IC50 for each compound was derived from fitting the data to the four-parameter logistic equation by Dotmatics.

The target of a further test is CDK6/Cyclin D3 (Homo sapiens (Human), UniProt Q00534). The experiment in a line: TR-FRET kinase inhibition assay, CDK6/Cyclin D3. The test is classed as biochemical. To be noted: 1 mM ATP, 0.15 μM Rb (Ser780)-biotin substrate, read-out: CDK6D3 IC50. The procedure:
Compounds disclosed herein were tested for inhibition of CDK4/Cyclin D1 or CDK6/Cyclin D3 kinase in an assay based on the time-resolved fluorescence-resonance energy transfer (TR-FRET) methodology. The assay was carried out in 384-well low volume black plates in a reaction mixture containing CDK4/Cyclin D1 or CDK6/Cyclin D3, 1 mM ATP, 0.15 μM Rb (Ser780)-biotin substrate and 0-10 μM compound in buffer containing 50 mM HEPES pH7.0, 0.02% NaN3, 0.01% BSA, 0.1 mM Orthovanadate, 50 mM MgCl2, 1 mM DTT and 0.005% Tween-20. The kinase was incubated with compound for 60 minutes at room temperature and the reaction was initiated by the addition of ATP and Rb (Ser780)-biotin substrate. After reaction at room temperature for 120 minutes, an equal volume of stop/detection solution was added according to the manufacture's instruction (Cisbio Bioassays). The stop/detection solution contained Streptavidin-XL665 and Anti-pRb (Ser780) mAb-Eu Cryptate in Detection buffer (Cisbio Bioassays). Plates were incubated at room temperature for 60 minutes, and the TR-FRET signals (ex337 nm, em665 nm/620 nm) were recorded on a PHERAstar FSX plate reader (BMG Labtech). The inhibition percentage of CDK4/Cyclin D1 or CDK6/Cyclin D3 kinase activity in presence of increasing concentrations of compounds was calculated based on the ratio of fluorescence at 665 nm to that at 620 nm. The IC50 for each compound was derived from fitting the data to the four-parameter logistic equation by Dotmatics.
For orientation: In TR-FRET formats the signal depends on donor and acceptor labels being close together.

IC50 data for 19 molecules are collected here from patent publication US20250136586A1, “Substituted 7-(Pyrimidin-4-yl)Quinolin-4(1H)-One Compounds as Cyclin Dependent Kinase Inhibitors” (BeiGene, Ltd., priority 2022, published 2025).

By IC50 is commonly meant the concentration at which inhibition is half-maximal.

Chain of CDK4/Cyclin D1 (P11802 whole entry): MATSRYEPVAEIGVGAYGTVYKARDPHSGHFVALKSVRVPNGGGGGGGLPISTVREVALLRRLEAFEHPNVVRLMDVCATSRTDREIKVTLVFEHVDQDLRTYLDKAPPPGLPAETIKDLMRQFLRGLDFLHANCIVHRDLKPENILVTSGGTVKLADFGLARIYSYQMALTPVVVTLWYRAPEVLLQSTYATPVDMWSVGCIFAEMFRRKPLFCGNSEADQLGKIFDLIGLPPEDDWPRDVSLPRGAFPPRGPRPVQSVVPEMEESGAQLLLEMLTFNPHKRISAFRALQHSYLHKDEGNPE
Chain of CDK4/Cyclin D1 (P24385 whole entry partner): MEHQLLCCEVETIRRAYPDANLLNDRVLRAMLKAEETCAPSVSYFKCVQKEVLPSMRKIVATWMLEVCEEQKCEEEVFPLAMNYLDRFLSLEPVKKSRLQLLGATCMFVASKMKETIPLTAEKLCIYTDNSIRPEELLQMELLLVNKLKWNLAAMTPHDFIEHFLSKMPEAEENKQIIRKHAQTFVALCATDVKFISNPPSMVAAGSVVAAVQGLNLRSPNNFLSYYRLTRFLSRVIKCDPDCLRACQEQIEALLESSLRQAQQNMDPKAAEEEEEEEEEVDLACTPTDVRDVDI
Chain of CDK6/Cyclin D3 (Q00534 whole entry): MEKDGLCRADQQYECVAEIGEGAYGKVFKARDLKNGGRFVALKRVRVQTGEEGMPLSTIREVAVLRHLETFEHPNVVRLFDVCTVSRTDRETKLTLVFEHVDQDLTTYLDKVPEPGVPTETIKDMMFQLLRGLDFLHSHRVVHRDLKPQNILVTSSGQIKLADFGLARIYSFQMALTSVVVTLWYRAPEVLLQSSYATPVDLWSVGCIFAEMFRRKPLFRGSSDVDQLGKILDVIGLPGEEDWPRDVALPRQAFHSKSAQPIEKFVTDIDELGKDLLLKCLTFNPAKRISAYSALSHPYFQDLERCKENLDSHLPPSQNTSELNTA
Chain of CDK6/Cyclin D3 (P30281 whole entry partner): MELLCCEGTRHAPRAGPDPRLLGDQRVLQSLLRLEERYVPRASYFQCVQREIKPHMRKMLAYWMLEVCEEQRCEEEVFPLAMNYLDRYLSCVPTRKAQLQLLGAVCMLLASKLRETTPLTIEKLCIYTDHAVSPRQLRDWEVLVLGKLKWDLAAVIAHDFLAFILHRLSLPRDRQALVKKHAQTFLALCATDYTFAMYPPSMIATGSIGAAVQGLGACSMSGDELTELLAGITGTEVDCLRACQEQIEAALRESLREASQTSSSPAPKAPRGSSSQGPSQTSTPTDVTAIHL

For `CC(C)n1c(CNc2cccc(Cl)c2)cc(=O)c2ccc(-c3nc(N[C@@H]4CCOC[C@H]4O)ncc3F)cc21` [Example 95, 2-(((3-chlorophenyl)amino)methyl)-7-(5-fluoro-2-(((3S,4R)-3-hydroxytetrahydro-2H-pyran-4-yl)amino)pyrimidin-4-yl)-1-isopropylquinolin-4(1H)-one], the IC50 at CDK4/Cyclin D1 turned out to be 13 nM; at CDK6/Cyclin D3 it was 208 nM.

Turning to `CC(C)n1c(CN2CCC(C)(C)CC2)cc(=O)c2ccc(-c3nc(N[C@@H]4CCOC[C@H]4O)ncc3F)cc21` [Example 97, 2-((4,4-dimethylpiperidin-1-yl)methyl)-7-(5-fluoro-2-(((3S,4R)-3-hydroxytetrahydro-2H-pyran-4-yl)amino)pyrimidin-4-yl)-1-isopropylquinolin-4(1H)-one], the IC50 at CDK4/Cyclin D1 was 64 nM; at CDK6/Cyclin D3, 2050 nM.

As for `CC(C)n1c(CN[C@H]2CCCOC2)cc(=O)c2ccc(-c3nc(N[C@@H]4CCOC[C@H]4O)ncc3F)cc21` [Example 60, 7-(5-fluoro-2-(((3S,4R)-3-hydroxytetrahydro-2H-pyran-4-yl)amino)pyrimidin-4-yl)-1-isopropyl-2-((((S)-tetrahydro-2H-pyran-3-yl)amino)methyl)quinolin-4(1H)-one], the half-maximal inhibitory concentration (IC50) at CDK4/Cyclin D1 turned out to be 22 nM; on CDK6/Cyclin D3 it was 638 nM.

In the case of `Cc1c(CN2CCC[C@H](O)C2)n(C(C)C)c2cc(-c3nc(N[C@@H]4CCOC[C@H]4O)ncc3F)ccc2c1=O` [Example 123, 7-(5-fluoro-2-(((3S,4R)-3-hydroxytetrahydro-2H-pyran-4-yl)amino)pyrimidin-4-yl)-2-(((S)-3-hydroxypiperidin-1-yl)methyl)-1-isopropyl-3-methylquinolin-4(1H)-one], the IC50 worked out at 4.3 nM on CDK4/Cyclin D1 and 129 nM at CDK6/Cyclin D3.

For the molecule `CC(C)n1c(CNc2ccccc2)cc(=O)c2ccc(-c3nc(N[C@@H]4CCOC[C@H]4O)ncc3F)cc21` [Example 94, 7-(5-fluoro-2-(((3S,4R)-3-hydroxytetrahydro-2H-pyran-4-yl)amino)pyrimidin-4-yl)-1-isopropyl-2-((phenylamino)methyl)quinolin-4(1H)-one], the IC50 on CDK4/Cyclin D1 came to 11 nM; at CDK6/Cyclin D3, 165 nM.

As to `Cc1c(CN[C@@H]2CCOC2)n(C(C)C)c2cc(-c3nc(N[C@@H]4CCOC[C@H]4O)ncc3F)ccc2c1=O` [Example 112, 7-(5-fluoro-2-(((3S,4R)-3-hydroxytetrahydro-2H-pyran-4-yl)amino)pyrimidin-4-yl)-1-isopropyl-3-methyl-2-((((R)-tetrahydrofuran-3-yl)amino)methyl)quinolin-4(1H)-one], the results for the IC50 at CDK4/Cyclin D1 and on CDK6/Cyclin D3 were 15 nM and 615 nM, respectively.

As to `CNC(=O)c1cc(=O)c2c(Cl)cc(-c3nc(N[C@@H]4CCOC[C@H]4O)ncc3F)cc2n1C(C)C` [Example 36, 5-chloro-7-(5-fluoro-2-(((3S,4R)-3-hydroxytetrahydro-2H-pyran-4-yl)amino)pyrimidin-4-yl)-1-isopropyl-N-methyl-4-oxo-1,4-dihydroquinoline-2-carboxamide], the IC50 at CDK4/Cyclin D1 was 57 nM; at CDK6/Cyclin D3, 553 nM.

For `Cc1cc(=O)c2ccc(-c3nc(N[C@@H]4CCOC[C@H]4O)ncc3F)cc2n1C(C)C` [Example 6, 7-(5-fluoro-2-(((3S,4R)-3-hydroxytetrahydro-2H-pyran-4-yl)amino)pyrimidin-4-yl)-1-isopropyl-2-methylquinolin-4(1H)-one], the IC50 on CDK4/Cyclin D1 was found to be 15 nM; at CDK6/Cyclin D3 it was 345 nM.

For `Cc1c(C2CC2)c(=O)c2ccc(-c3nc(N[C@@H]4CCOC[C@H]4O)ncc3F)cc2n1C(C)C` [Example 40, 3-cyclopropyl-7-(5-fluoro-2-(((3S,4R)-3-hydroxytetrahydro-2H-pyran-4-yl)amino)pyrimidin-4-yl)-1-isopropyl-2-methylquinolin-4(1H)-one], the IC50 on CDK4/Cyclin D1 is 8.8 nM; on CDK6/Cyclin D3 it was 150 nM.

Take `CC(C)n1c(CN2C[C@@H](O)[C@@H](F)C2)cc(=O)c2ccc(-c3nc(N[C@@H]4CCOC[C@H]4O)ncc3F)cc21` [Example 31, 7-(5-fluoro-2-(((3S,4R)-3-hydroxytetrahydro-2H-pyran-4-yl)amino)pyrimidin-4-yl)-2-(((3S,4R)-3-fluoro-4-hydroxypyrrolidin-1-yl)methyl)-1-isopropylquinolin-4(1H)-one]: the IC50 is 13 nM on CDK4/Cyclin D1 and 481 nM at CDK6/Cyclin D3.

Regarding `CC(C)n1c(CN2CC[C@@H](F)C2)cc(=O)c2ccc(-c3nc(N[C@@H]4CCOC[C@H]4O)ncc3F)cc21` [Example 49, 7-(5-fluoro-2-(((3S,4R)-3-hydroxytetrahydro-2H-pyran-4-yl)amino)pyrimidin-4-yl)-2-(((R)-3-fluoropyrrolidin-1-yl)methyl)-1-isopropylquinolin-4(1H)-one], the concentration for half-maximal inhibition (IC50) at CDK4/Cyclin D1 turned out to be 8.3 nM; at CDK6/Cyclin D3, 299 nM.

In the case of `Cc1c(CN2CC[C@](C)(O)C2)n(C(C)C)c2cc(-c3nc(N[C@@H]4CCOC[C@H]4O)ncc3F)ccc2c1=O` [Example 125, 7-(5-fluoro-2-(((3S,4R)-3-hydroxytetrahydro-2H-pyran-4-yl)amino)pyrimidin-4-yl)-2-(((S)-3-hydroxy-3-methylpyrrolidin-1-yl)methyl)-1-isopopyl-3-methylquinolin-4(1H)-one], the IC50 at CDK4/Cyclin D1 amounted to 15 nM; at CDK6/Cyclin D3, 360 nM.

For the molecule `CC(C)n1c(CN2CCC[C@@H](F)C2)cc(=O)c2ccc(-c3nc(N[C@@H]4CCOC[C@H]4O)ncc3F)cc21` [Example 98, 7-(5-fluoro-2-(((3S,4R)-3-hydroxytetrahydro-2H-pyran-4-yl)amino)pyrimidin-4-yl)-2-(((R)-3-fluoropiperidin-1-yl)methyl)-1-isopropylquinolin-4(1H)-one], the figures for the concentration for half-maximal inhibition (IC50) at CDK4/Cyclin D1 and on CDK6/Cyclin D3 were 8.6 nM and 370 nM, respectively.

Regarding `CC(C)n1c(CNc2cnn(C)c2)cc(=O)c2ccc(-c3nc(N[C@@H]4CCOC[C@H]4O)ncc3F)cc21` [Example 78, 7-(5-fluoro-2-(((3S,4R)-3-hydroxytetrahydro-2H-pyran-4-yl)amino)pyrimidin-4-yl)-1-isopropyl-2-(((1-methyl-1H-pyrazol-4-yl)amino)methyl)quinolin-4(1H)-one], the IC50 at CDK4/Cyclin D1 stood at 22 nM; on CDK6/Cyclin D3, 352 nM.

Consider `CC(C)n1c(CN2CCC[C@H](O)C2)cc(=O)c2ccc(-c3nc(N[C@@H]4CCOC[C@H]4O)ncc3F)cc21` [Example 56, 7-(5-fluoro-2-(((3S,4R)-3-hydroxytetrahydro-2H-pyran-4-yl)amino)pyrimidin-4-yl)-2-(((S)-3-hydroxypiperidin-1-yl)methyl)-1-isopropylquinolin-4(1H)-one], for which the values for the half-inhibitory concentration (IC50) on CDK4/Cyclin D1 and at CDK6/Cyclin D3 were 7 nM and 238 nM, respectively.

Regarding `CC(C)n1c(CN2CCC(C#N)CC2)cc(=O)c2ccc(-c3nc(N[C@@H]4CCOC[C@H]4O)ncc3F)cc21` [Example 37, 1-((7-(5-fluoro-2-(((3S,4R)-3-hydroxytetrahydro-2H-pyran-4-yl)amino)pyrimidin-4-yl)-1-isopropyl-4-oxo-1,4-dihydroquinolin-2-yl)methyl)piperidine-4-carbonitrile], the IC50 on CDK4/Cyclin D1 worked out at 22 nM; at CDK6/Cyclin D3 it was 682 nM.

For the molecule `CNC(=O)c1c(C)c(=O)c2ccc(-c3nc(N[C@@H]4CCOC[C@H]4O)ncc3F)cc2n1C(C)C` [Example 24, 7-(5-fluoro-2-(((3S,4R)-3-hydroxytetrahydro-2H-pyran-4-yl)amino)pyrimidin-4-yl)-1-isopropyl-N,3-dimethyl-4-oxo-1,4-dihydroquinoline-2-carboxamide], the values for the half-maximal inhibitory concentration (IC50) on CDK4/Cyclin D1 and on CDK6/Cyclin D3 were 24 nM and 432 nM, respectively.

`CC(C)n1c(CN2CCC(O)CC2)cc(=O)c2ccc(-c3nc(N[C@@H]4CCOC[C@H]4O)ncc3F)cc21` [Example 39, 7-(5-fluoro-2-(((3S,4R)-3-hydroxytetrahydro-2H-pyran-4-yl)amino)pyrimidin-4-yl)-2-((4-hydroxypiperidin-1-yl)methyl)-1-isopropylquinolin-4(1H)-one]: the figures for the 50% inhibitory concentration (IC50) at CDK4/Cyclin D1 and on CDK6/Cyclin D3 were 24 nM and 744 nM, respectively.

For `CC(C)n1c(CNC(C)(C)C)cc(=O)c2ccc(-c3nc(N[C@@H]4CCOC[C@H]4O)ncc3F)cc21` [Example 75, 2-((tert-butylamino)methyl)-7-(5-fluoro-2-(((3S,4R)-3-hydroxytetrahydro-2H-pyran-4-yl)amino)pyrimidin-4-yl)-1-isopropylquinolin-4(1H)-one], the half-inhibitory concentration (IC50) at CDK4/Cyclin D1 came to 21 nM; on CDK6/Cyclin D3 it was 525 nM.
